These results are taken from patent publication US20150031668A1, “CHROMAN DERIVATIVES AS TRPM8 INHIBITORS” (AMGEN INC., priority 2013, published 2015).

pIC50: −log10 of the molar value. Where a name gives a salt, the structure may show the parent alone.

What is called pIC50 is −log10 of the IC50, conventionally taken in molar units.

For this experiment, the target named is T1, human TRPM8 (Homo sapiens, UniProt Q7Z2W7).
T1 construct: expressed in transfected cells; host or cells: Chinese hamster ovary (CHO) cells, T-REx tetracycline-inducible expression system (Invitrogen); co-transfected with pcDNA3.1 aequorin
T1 sequence (Q7Z2W7 whole entry): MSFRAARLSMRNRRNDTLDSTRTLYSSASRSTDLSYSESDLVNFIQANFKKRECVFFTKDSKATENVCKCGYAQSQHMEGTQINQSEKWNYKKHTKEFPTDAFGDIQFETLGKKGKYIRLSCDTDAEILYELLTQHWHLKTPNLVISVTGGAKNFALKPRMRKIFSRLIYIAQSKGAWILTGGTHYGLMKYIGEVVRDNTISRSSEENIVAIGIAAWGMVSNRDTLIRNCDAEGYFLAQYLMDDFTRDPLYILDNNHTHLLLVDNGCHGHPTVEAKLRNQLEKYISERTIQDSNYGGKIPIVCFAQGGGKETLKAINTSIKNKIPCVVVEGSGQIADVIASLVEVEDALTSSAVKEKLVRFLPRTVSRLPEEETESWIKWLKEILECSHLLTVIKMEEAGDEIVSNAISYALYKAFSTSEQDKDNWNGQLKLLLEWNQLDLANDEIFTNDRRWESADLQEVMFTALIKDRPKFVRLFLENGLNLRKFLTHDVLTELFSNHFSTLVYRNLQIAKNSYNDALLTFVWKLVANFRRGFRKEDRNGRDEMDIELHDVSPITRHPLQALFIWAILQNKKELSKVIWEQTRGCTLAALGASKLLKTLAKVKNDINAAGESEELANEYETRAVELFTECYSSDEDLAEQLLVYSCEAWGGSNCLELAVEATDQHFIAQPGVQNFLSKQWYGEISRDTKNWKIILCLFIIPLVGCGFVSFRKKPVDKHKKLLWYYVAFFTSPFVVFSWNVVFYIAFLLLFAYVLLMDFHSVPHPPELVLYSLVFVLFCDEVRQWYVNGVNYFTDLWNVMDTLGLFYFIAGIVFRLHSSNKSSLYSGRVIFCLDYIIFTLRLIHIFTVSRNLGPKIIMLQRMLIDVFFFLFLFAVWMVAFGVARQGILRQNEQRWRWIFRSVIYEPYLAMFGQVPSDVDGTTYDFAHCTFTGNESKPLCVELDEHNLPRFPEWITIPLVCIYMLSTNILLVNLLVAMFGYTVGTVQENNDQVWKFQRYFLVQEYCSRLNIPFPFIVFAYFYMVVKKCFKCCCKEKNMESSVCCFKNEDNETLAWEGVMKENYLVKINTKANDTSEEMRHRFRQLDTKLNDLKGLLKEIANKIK
As to the kind of experiment: Luminescence readout assay for measuring intracellular calcium (aequorin, CHO cells expressing human TRPM8; icilin, L-menthol or cold activation). Type of experiment: cell-based. As to conditions: CHO cells expressing human TRPM8, icilin activation (1 μM), aequorin luminescence; read-out: hTRPM8 IC50. The method, boiled down: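 Activation was by 1 μM icilin, 100 μM L-menthol (test compound 2.5 min ahead) or cold buffer below 10° C (compound 1 min ahead). Calcium rise measured as aequorin luminescence in CHO cells with tetracycline-inducible human TRPM8.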
(In general: A change in cytosolic calcium serves as a functional read-out for many receptors and channels.)
For the compound `O=C(N[C@]1(c2ccc(OC(F)(F)F)cc2)CCOc2cccnc21)c1cnc2ccccc2n1` [Example 255, (S)-N-(4-(4-(trifluoromethoxy)phenyl)-3,4-dihydro-2H-pyrano[3,2-b]pyridin-4-yl)quinoxaline-2-carboxamide formate], the pIC50 is 8.05. As for `COC(=O)c1ccc(C(=O)N[C@]2(c3ccc(OC(F)(F)F)cc3)CCOc3cccnc32)nc1` [Example 176, (S)-methyl 6-((4-(4-(trifluoromethoxy)phenyl)-3,4-dihydro-2H-pyrano[3,2-b]pyridin-4-yl)carbamoyl) nicotinate], the pIC50 was 7.27. The figure for `O=C(N[C@]1(c2ccc(C(F)(F)F)cc2)CCOc2cccnc21)c1ccc(O)cc1` (single isomer, unassigned) [Example 4] is 8.05; for `O=C(NC1(c2ccc(Cl)c(Cl)c2)CCOc2cccnc21)c1ccc2[nH]c(=O)oc2c1` (stereo not shown) [Example 24, N-(4-(3,4-dichlorophenyl)-3,4-dihydro-2H-pyrano[3,2-b]pyridin-4-yl)-2-oxo-2,3-dihydrobenzo[d]oxazole-6-carboxamide] it is 7.64. The figure for `CCOc1cnc(-c2ccc([C@@]3(NC(=O)c4ccc(F)cc4)CCOc4cccnc43)cc2)cn1` [Example 117, (S)-N-(4-(4-(5-ethoxypyrazin-2-yl)phenyl)-3,4-dihydro-2H-pyrano[3,2-b]pyridin-4-yl)-4-fluorobenzamide] is 7.13. As to `Cn1c(C(=O)N[C@]2(c3ccc(OC(F)(F)F)c(F)c3)CCOc3cccnc32)cnc1Br` [Example 180, (S)-2-bromo-N-(4-(3-fluoro-4-(trifluoromethoxy)phenyl)-3,4-dihydro-2H-pyrano[3,2-b]pyridin-4-yl)-1-methyl-1H-imidazole-5-carboxamide], the pIC50 is 7.49. The figure for `O=C(N[C@]1(c2ccc(OC(F)(F)F)cc2)CCOc2cccnc21)C1Cc2ccccc2N1` (stereo partly drawn) [Example 245, N-((S)-4-(4-(trifluoromethoxy)phenyl)-3,4-dihydro-2H-pyrano[3,2-b]pyridin-4-yl)indoline-2-carboxamide formate] is 6.60; for `CCOC(=O)c1ccc(C(=O)N[C@]2(c3ccc(OC(F)(F)F)c(F)c3)CCOc3cccnc32)nc1C` [Example 169, (S)-ethyl 6-((4-(3-fluoro-4-(trifluoromethoxy)phenyl)-3,4-dihydro-2H-pyrano[3,2-b]pyridin-4-yl)carbamoyl)-2-methylnicotinate] it is 7.49; for `O=C(N[C@]1(c2ccc(OC(F)(F)F)c(F)c2)CCOc2cccnc21)c1ccc(C(=O)O)c(O)c1` [Example 298, (S)-4-((4-(3-fluoro-4-(trifluoromethoxy)phenyl)-3,4-dihydro-2H-pyrano[3,2-b]pyridin-4-yl)carbamoyl)-2-hydroxybenzoic acid] it is 7.64.

As to `COC(=O)c1ccnc(C(=O)N[C@]2(c3ccc(OC(F)(F)F)c(F)c3)CCOc3cccnc32)c1` [Example 201, (S)-methyl 2-((4-(3-fluoro-4-(trifluoromethoxy)phenyl)-3,4-dihydro-2H-pyrano[3,2-b]pyridin-4-yl)carbamoyl) isonicotinate], the pIC50 is 7.68. Consider `COC(=O)c1ccc(C(=O)NC2(c3ccc(OC(F)(F)F)c(F)c3)CCOc3cccnc32)nc1` (stereo not shown) [Example 30, methyl 6-((4-(3-fluoro-4-(trifluoromethoxy)phenyl)-3,4-dihydro-2H-pyrano[3,2-b]pyridin-4-yl)carbamoyl)nicotinate], for which the negative logarithm of the IC50 (pIC50) was 7.72. The figure for `O=C(O)c1ccc(S(=O)(=O)N[C@]2(c3ccc(OC(F)(F)F)c(F)c3)CCOc3cccnc32)cc1` [Example 317, (S)-4-(N-(4-(3-fluoro-4-(trifluoro-methoxy)phenyl)-3,4-dihydro-2H-pyrano[3,2-b]pyridin-4-yl)sulfamoyl) benzoic acid] is 5.48.

As to `COc1ccc(-c2ccc([C@@]3(NC(=O)c4ccc(F)cc4)CCOc4cccnc43)cc2)c(CO)c1` [Example 136, (S)-4-fluoro-N-(4-(2′-(hydroxymethyl)-4′-methoxy-[1,1′-biphenyl]-4-yl)-3,4-dihydro-2H-pyrano[3,2-b]pyridin-4-yl)benzamide], the pIC50 is 6.11. For `Cc1cc(C(=O)N[C@]2(c3ccc(C(F)(F)F)c(F)c3)CCOc3cccnc32)ccc1C(=O)O` [Example 287, (S)-4-((4-(3-fluoro-4-(trifluoromethyl)phenyl)-3,4-dihydro-2H-pyrano[3,2-b]pyridin-4-yl)carbamoyl)-2-methylbenzoic acid] the value was 7.77; for `O=C(N[C@]1(c2ccc(OC(F)(F)F)cc2)CCOc2cccnc21)c1cnn2cccnc12` [Example 244, (S)-N-(4-(4-(trifluoromethoxy)phenyl)-3,4-dihydro-2H-pyrano[3,2-b]pyridin-4-yl)pyrazolo[1,5-a] pyrimidine-3-carboxamide formate], 7.28; for `O=C(N[C@]1(c2ccc(OC(F)(F)F)cc2)CCOc2cccnc21)c1cscn1` [Example 231, (S)-N-(4-(4-(trifluoromethoxy)phenyl)-3,4-dihydro-2H-pyrano[3,2-b]pyridin-4-yl)thiazole-4-carboxamide formate], 7.34.

As for `Cc1ccc2[nH]c(C(=O)N[C@]3(c4ccc(OC(F)(F)F)cc4)CCOc4cccnc43)cc2c1` [Example 222, (S)-5-methyl-N-(4-(4-(trifluoromethoxy)phenyl)-3,4-dihydro-2H-pyrano[3,2-b]pyridin-4-yl)-1H-indole-2-carboxamide formate], the pIC50 was 5.70.

On to `COC(=O)c1cccc(NC(=O)N[C@]2(c3ccc(OC(F)(F)F)c(F)c3)CCOc3cccnc32)c1` [Example 91, (S)-methyl 3-(3-(4-(3-fluoro-4-(trifluoromethoxy)phenyl)-3,4-dihydro-2H-pyrano[3,2-b]pyridin-4-yl)ureido)benzoate], for which the pIC50 was 7.72.

Regarding `O=C(N[C@]1(c2ccc(OC(F)(F)F)cc2)CCOc2cccnc21)c1cc2cccnc2[nH]1` [Example 216, (S)-N-(4-(4-(trifluoromethoxy)phenyl)-3,4-dihydro-2H-pyrano[3,2-b]pyridin-4-yl)-1H-pyrrolo[2,3-b] pyridine-2-carboxamide formate], the pIC50 was 6.57.

As to `O=C(N[C@]1(c2ccc(OC(F)(F)F)c(F)c2)CCOc2cccnc21)N1CCOCC1` [Example 101, (S)-N-(4-(3-fluoro-4-(trifluoromethoxy)phenyl)-3,4-dihydro-2H-pyrano[3,2-b]pyridin-4-yl)morpholine-4-carboxamide], the pIC50 was 6.12. The figure for `O=C(N[C@]1(c2ccc(-c3ccoc3)cc2)CCOc2cccnc21)c1ccc(F)cc1` [Example 145, (S)-4-fluoro-N-(4-(4-(furan-3-yl)phenyl)-3,4-dihydro-2H-pyrano[3,2-b]pyridin-4-yl)benzamide] is 7.15; for `Nc1ccc(C(=O)N[C@]2(c3ccc(OC(F)(F)F)c(F)c3)CCOc3cccnc32)nc1` [Example 284, (S)-5-amino-N-(4-(3-fluoro-4-(trifluoromethoxy)phenyl)-3,4-dihydro-2H-pyrano[3,2-b]pyridin-4-yl)picolinamide] it is 8.22. `O=C(N[C@]1(c2ccc(OC(F)(F)F)cc2)CCOc2cccnc21)c1nc2ccccc2[nH]1` [Example 241, (S)-N-(4-(4-(trifluoromethoxy)phenyl)-3,4-dihydro-2H-pyrano[3,2-b]pyridin-4-yl)-1H-benzo[d]imidazole-2-carboxamide formate]: the pIC50 was 6.11. Regarding `O=C(N[C@]1(c2ccc(OC(F)(F)F)c(F)c2)CCOc2cccnc21)c1ccc(-c2nn[nH]n2)cn1` [Example 281, (S)—N-(4-(3-fluoro-4-(trifluoromethoxy)phenyl)-3,4-dihydro-2H-pyrano[3,2-b]pyridin-4-yl)-5-(2H-tetrazol-5-yl)picolinamide], the pIC50 was 7.29.

For `COC(=O)c1cccc(C(=O)N[C@]2(c3ccc(OC(F)(F)F)c(F)c3)CCOc3cccnc32)c1` [Example 280, (S)-methyl 3-((4-(3-fluoro-4-(trifluoromethoxy)phenyl)-3,4-dihydro-2H-pyrano[3,2-b]pyridin-4-yl)carbamoyl) benzoate], the pIC50 is 7.59.

Turning to `O=C(N[C@]1(c2ccc(OC(F)(F)F)c(F)c2)CCOc2cccnc21)c1ccc(Br)cn1` [Example 206, (S)-5-bromo-N-(4-(3-fluoro-4-(trifluoromethoxy)phenyl)-3,4-dihydro-2H-pyrano[3,2-b]pyridin-4-yl) picolinamide], the pIC50 was 7.89. For `O=C(N[C@]1(c2ccc(C(F)(F)F)cc2)CCOc2cccnc21)c1ccccc1` (single isomer, unassigned) [Example 1] the value was 7.85; for `CCOC(=O)c1cc(C(=O)N[C@]2(c3ccc(OC(F)(F)F)c(F)c3)CCOc3cccnc32)cc(C(=O)OCC)c1` [Example 192, (S)-diethyl 5-((4-(3-fluoro-4-(trifluoromethoxy)phenyl)-3,4-dihydro-2H-pyrano[3,2-b]pyridin-4-yl)carbamoyl) isophthalate], 7.03; for `CS(=O)(=O)Nc1ccc(C(=O)N[C@]2(c3ccc(OC(F)(F)F)c(F)c3)CCOc3cccnc32)nc1` [Example 65, (S)—N-(4-(3-fluoro-4-(trifluoromethoxy)phenyl)-3,4-dihydro-2H-pyrano[3,2-b]pyridin-4-yl)-5-(methylsulfonamido)picolinamide], 7.92. Regarding `Cc1[nH]c(C(=O)N[C@]2(c3ccc(OC(F)(F)F)c(F)c3)CCOc3cccnc32)cc1C(=O)O` [Example 301], the pIC50 was 6.58. The figure for `O=C(N[C@]1(c2ccc(-c3ccc(CO)cc3)cc2)CCOc2cccnc21)c1ccc(F)cc1` [Example 151, (S)-4-fluoro-N-(4-(4′-(hydroxymethyl)-[1,1′-biphenyl]-4-yl)-3,4-dihydro-2H-pyrano[3,2-b]pyridin-4-yl)benzamide] is 5.79.
